Experimental data published in patent publication US9055743B2, “Alpha, beta-unsaturated imines” (BAYER INTELLECTUAL PROPERTY GMBH, priority 2010, dated 2015).

Experiments:
Format in all cases: in vivo
Boophilus microplus = Boophilus microplus test (BOOPMI injection); settings: 20 μg/animal, injection into the abdomen, after 7 days
Method: Boophilus microplus Test (BOOPMI Injection)
(§1) Solvent: Dimethyl Sulphoxide
To produce a suitable preparation of active compound, 10 mg of active compound are mixed with 0.5 ml of solvent and the concentrate is diluted with solvent to the desired concentration. The solution of active compound is injected into the abdomen (Boophilus microplus), and the animals are transferred into dishes and kept in a climatized room. The activity is assessed by […] of fertile eggs.
After 7 days, the effect in % is determined 100% means that none of the ticks has laid any fertile eggs.

[1] = test system: Boophilus microplus strain Parkhurst, SP-resistant; assay: Boophilus microplus test (DIP); settings: 100 ppm, after 7 days
Method: Boophilus microplus Test (DIP) Test Animals: Adult Fat Females of the Boophilus microplus Strain Parkhurst—SP-Resistant) Solvent: Dimethyl Sulphoxide
10 mg of active compound are dissolved in 0.5 ml of dimethyl sulphoxide. To produce a suitable formulation, the active compound solution is diluted with water to the particular desired concentration.
This active compound preparation is pipetted into tubes. 8-10 ticks are transferred into a further tube provided with holes. The tube is dipped into the active compound preparation, with all the ticks being wetted completely. After the liquid has run off, the ticks are transferred to filter discs in plastic dishes and kept in a climatized room. After 7 days, the activity is checked for deposition of fertile eggs. Eggs whose fertility is not visible from the outside are kept in glass tubes in a climatized cupboard until the larvae have hatched. An activity of 100% means that no tick has laid fertile eggs.

Ctenocephalides felis = Ctenocephalides felis oral test (CTECFE); settings: 100 ppm in citrated cattle blood, after two days
Method: Ctenocephalides Felis Oral Test (CTECFE)
Solvent: 1 Part by Weight of Dimethyl Sulphoxide
To produce a suitable preparation of active compound, 10 mg of active compound are mixed with 0.5 ml of dimethyl sulphoxide. Part of the concentrate is diluted with citrated cattle blood, and the desired concentration is prepared.
About 20 unfed adult fleas (Ctenocephalides felis) are placed into a chamber which is closed at the top and bottom with gauze. A metal cylinder whose bottom end is closed with parafilm is placed onto the chamber. The cylinder contains the blood/active compound preparation, which can be taken up by the fleas through the parafilm membrane. After two days, the kill in % is determined 100% means that all fleas have been killed; 0% means that none of the fleas have been killed.

Lucilia cuprina larvae = assay: Lucilia cuprina test (LUCICU); settings: 100 ppm, after 2 days
Method: Lucilia cuprina Test (LUCICU)
as §1
To produce a suitable preparation of active compound, 10 mg of active compound are mixed with 0.5 ml of dimethyl sulphoxide and the concentrate is diluted with water to the desired concentration. Vessels containing horsemeat treated with the active compound preparation of the desired concentration are populated with about 20 Lucilia cuprina larvae.
After 2 days, the kill in % is determined. 100% means that all larvae have been killed; 0% means that none of the larvae have been killed.

[2] = test system: cat fleas (Ctenocephalides felis, fully sensitive laboratory strain); assay: Contact test against fleas in-vitro (CTECFE contact); settings: 500 g/ha, after 48 h
Method: Contact Test Against Fleas In-Vitro (CTECFE Contact)
An amount of 0.9 mg of active compound is weighed out, and 1 ml of acetone is added.
Of this acetone solution, either […] are transferred directly into roll-necked test tubes or an aliquot is diluted with 4 parts of acetone 1:5. For its part, 250 μl of this dilution are pipetted into roll-necked test tubes, or the dilution is diluted further, etc., until the desired number of dilution steps is reached.
The roll-necked test tubes containing the solution of the active compound in acetone are immediately coated in a fume cupboard by 2 h of swing rotation at 30 rpm. After evaporation of the solvent, the active compound contained in the acetone gives, at the highest concentration tested, an active compound content of 500 g/ha (or 500 μg/dm^2) on the surface of the test tube.
10-20 Adult cat fleas (Ctenocephalides felis, fully sensitive laboratory strain) anesthetized with CO2 are transferred into the test tubes prepared in this manner, and the test tubes are closed with a plastic roll-necked lid provided with fine holes.
The test tubes are stored vertically at room temperature and humidity for 24 or 48 h. After 24 and 48 h, the activity of the active compound applied is determined by comparison with an acetone-treated control. Here, an observed normal activity for all fleas corresponds to 0% activity, a strongly restricted or uncoordinated (knock-down) movement or death of all fleas corresponds to 100% activity.

[3] = test system: larvae of the mustard beetle (Phaedon cochleariae); assay: Phaedon test (PHAECO spray treatment); settings: 500 g/ha, spray, after 7 days
Method in brief: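 Mustard beetle larvae were placed on dried Brassica pekinensis leaf discs previously spray-treated with test compound; formulation used acetone and dimethylformamide solvents plus alkylaryl polyglycol ether emulsifier, diluted with emulsifier-containing water.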

[4] = test system: caterpillars of the army worm (Spodoptera frugiperda); assay: Spodoptera frugiperda test (SPODFR spray treatment); settings: 500 g/ha, spray, after 7 days
Method in brief: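 Activity in % read 7 days after armyworm caterpillars were placed on dried, sprayed Zea mays leaf discs; 0% means none killed. Spray prepared from an acetone/DMF concentrate with emulsifier, diluted with emulsifier-containing water.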

[5] = test system: Anopheles gambiae (homocygus kdr); assay: Anopheles test (ANPHGB surface treatment); settings: for knock-down activity: 100 mg/m^2, two hours after contact, exposition 30 minutes
Method in brief: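 Adult mosquitoes held 30 min on a glazed tile treated with a dried 2 mg/ml acetone solution of compound. Mortality scored at 24 h (100% = all killed), knock-down percentage at 2 h post-contact.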

Aedes aegypti = assay: Aedes test (AEDSAE surface treatment); settings: 100 mg/m^2, two hours after contact, exposition 30 minutes
Method: Aedes Test (AEDSAE Surface Treatment)
To produce a suitable preparation of active compound, the active compound is dissolved in acetone (2 mg/ml). The active compound preparation is pipetted onto a glazed tile and, after drying, adult mosquitoes of the species Aedes aegypti are placed onto the treated tile. The exposition time is 30 minutes.
Two hours after contact to the treated surface, the knock-down proportion of the test animals in % is determined.
24 hours after contact to the treated surface, the mortality in % is determined Here, 100% means that all mosquitoes have been killed; 0% means that none of the mosquitoes has been killed.

[6] = test system: green peach aphid (Myzus persicae); assay: Myzus test (MYZUPE spray treatment); settings: 500 g/ha, spray, after 6 days
Method in brief: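 Activity read as % aphid kill 6 days after treatment (0% = none killed). Compound formulated in acetone and dimethylformamide plus alkylaryl polyglycol ether, diluted in water and sprayed onto infested Brassica pekinensis leaf discs.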

[7] = test system: greenhouse red spider mite (Tetranychus urticae); assay: Tetranychus test; OP-resistant (TETRUR spray treatment); settings: 500 g/ha, spray, after 6 days
Method in brief: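 Activity, as % of mites killed (0–100%), was assessed 6 days after spraying. The spray was compound formulated with acetone, DMF and emulsifier, then diluted in water. It was applied to Phaseolus vulgaris leaf discs carrying every life stage of an OP-resistant spider mite strain.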

Row | SMILES | activity (100% = none of the ticks has laid any fertile eggs) (Boophilus microplus) [%] | activity (100% = no tick has laid fertile eggs) [1] [%] | activity (kill in %) (Ctenocephalides felis) [%] | activity (kill in %) (Lucilia cuprina larvae) [%] | activity against cat fleas [2] [%] | activity (beetle larvae killed) [3] [%] | activity (caterpillars killed) [4] [%] | knock-down activity [5] [%] | knock-down activity (Aedes aegypti) [%] | pest or weed control at 500 g/ha ([3]; Phaedon cochleariae, 168 h, read-out: activity (beetle larvae killed)) [%] | pest or weed control at 500 g/ha ([4]; Spodoptera frugiperda, 168 h, read-out: activity (caterpillars killed)) [%] | pest or weed control at 500 g/ha ([6]; Myzus persicae, 144 h, read-out: activity (aphids killed)) [%] | pest or weed control at 500 g/ha ([7]; Tetranychus urticae, 144 h, read-out: activity (spider mites killed)) [%] | mortality at 100 mg/m2 ([5]; Anopheles gambiae, read-out: activity (mortality in %)) [%] | activity (aphids killed) [6] [%] | activity (spider mites killed) [7] [%]
1 | Cc1ccc(N=C2C(=CSc3ccc(F)cc3)CCc3c(F)cccc32)cc1 (mixture of isomers) [Example 1-34] | 100 | 80 | 100 | 100 | 100 | 100 | 100 | 100 | 100 | – | – | – | – | – | – | –
2 | Fc1ccc(N=C2/C(=C/Sc3ccccc3)CCc3ccccc32)cc1 [Example 1-3, 4-Fluoro-N-[(2E)-2-[(phenylsulphanyl)methylene]-3,4-dihydronaphthalen-1(2H)-ylidene]aniline] | 100 | – | 90 | 100 | 100 | – | – | 80 | – | 100 | 100 | 100 | 100 | 100 | – | –
3 | Cc1ccc(N=C2C(=CSc3ccccc3)CSc3ccccc32)cc1 [Example 1-4] | 100 | 100 | 100 | 100 | 100 | 100 | 100 | 100 | – | – | – | – | – | – | 100 | 100
4 | Cc1ccc(N=C2C(=CSc3ccc(Cl)cc3)CCc3ccccc32)cc1 [Example 1-59] | 100 | 100 | 100 | 90 | 100 | 100 | 100 | – | – | – | – | – | – | – | 100 | 100
5 | Cc1ccc(N=C2C(=CSc3cccc(Cl)c3)CCc3ccccc32)cc1 [Example 1-62] | 100 | 100 | 100 | 80 | 100 | 100 | 100 | 100 | – | – | – | – | – | – | 100 | 100
6 | Cc1ccc(N=C2C(=CSc3ccccc3Cl)CCc3ccccc32)cc1 [Example 1-69] | 100 | – | 100 | 100 | 100 | 100 | 100 | 90 | – | – | – | – | – | – | 90 | 100
7 | Cc1ccc(N=C2C(=CSc3ccc(F)c(F)c3)CCc3ccccc32)cc1 [Example 1-74] | 100 | – | 80 | 100 | 100 | 100 | 100 | 100 | 95 | – | – | – | – | – | 100 | 100
8 | Cc1ccc(N=C2C(=CSc3ccc(F)cc3F)CCc3ccccc32)cc1 [Example 1-79] | 100 | – | 100 | 100 | 100 | 100 | 100 | 100 | 100 | – | – | – | – | – | 100 | 100
9 | Cc1ccc(N=C2C(=CSc3ccccc3F)CCc3ccccc32)cc1 [Example 1-80] | 100 | – | 90 | 100 | 100 | 100 | 100 | 100 | 80 | – | – | – | – | – | 100 | 100
10 | Cc1ccc(N=C2C(=CSc3cc(F)cc(F)c3)CCc3ccccc32)cc1 [Example 1-81] | 100 | – | 100 | 100 | 100 | 100 | 100 | 100 | – | – | – | – | – | – | 100 | 100
11 | Cc1ccc(N=C2C(=CSc3ccc(C(F)(F)F)cc3)CCc3ccccc32)cc1 [Example 1-82] | 100 | – | 100 | 100 | 100 | 100 | 100 | 100 | – | – | – | – | – | – | 100 | 100
